A compilation of properties of binary mixtures (doi:10.1016/j.molliq.2011.08.008)

Assay: xn = mol fraction of the nth substance listed
Conditions: 100 kPa

CCOCCOCCOCCO + CCCC[n+]1ccn(C)c1.F[P-](F)(F)(F)(F)F
speed of sound [m/s]
Conditions | x2 = 0.0558 | x2 = 0.1123 | x2 = 0.2121 | x2 = 0.3079 | x2 = 0.4014 | x2 = 0.5002 | x2 = 0.6006 | x2 = 0.7035 | x2 = 0.8015 | x2 = 0.9075
288.15 K | – | 1474.2 | – | 1486.2 | 1487.1 | 1485 | 1481.8 | 1478.4 | 1469.4 | 1467.9
293.15 K | 1448.3 | 1457 | 1466.8 | 1470.5 | 1472.2 | 1470.8 | 1468.1 | – | – | –
298.15 K | 1430.9 | 1440 | 1450.5 | 1455 | 1457.3 | – | 1454.5 | 1452.5 | 1444.6 | –
303.15 K | 1414.1 | 1423.2 | 1434.3 | 1439.6 | 1442.5 | 1442.7 | 1441.2 | 1439.1 | – | 1431.2
308.15 K | 1397.3 | 1406.5 | 1418.1 | 1424.2 | 1427.7 | – | 1427.8 | 1426.1 | 1420.7 | 1419.5
313.15 K | – | – | 1402.2 | 1409 | 1413.1 | 1415 | 1414.5 | 1413.5 | – | 1408
318.15 K | 1363.8 | 1373.6 | 1386.2 | 1393.8 | 1398.8 | 1401.1 | 1401.5 | 1400.7 | 1397.8 | 1396.6
